In data set [1] the test system is interleukin-4 (IL-4). The data set is described as follows: IL-4 production from OVA-sensitized mouse spleen cells induced by antigen stimulation (ELISA). It counts as cell-based. The conditions noted are these: OVA-stimulated sensitized spleen cells, 3 days culture supernatant. As for the experimental part: (§1) 1) Preparation of Sensitized Mouse Spleen Cells
(§2) Seven week-old male BALB/c mice were immunized with 4 mg of aluminium hydroxide gel (100 μl) adsorbing 10 μg of ovalbumin (OVA) by intraperitoneal administration. After 14 days, the mice received a booster injection of the same composition. Seven days after the booster administration, the spleen was removed and suspended in RPMI-1640 medium containing inactivated bovine fetal serum (10% v/v), 2-mercaptoethanol (50 μM), penicillin G (100 U/ml) and streptomycin (100 μg/ml) to prepare a cell suspension.
(§3) 2) Cytokine Production Induced by Antigen Stimulation
(§4) To the spleen cell suspension (5×10^6 cells/200 μl/well), 1/1000 volume of dimethyl sulfoxide solution dissolving OVA (0.5 mg/ml) and a test compound at a specific concentration was added. Then, the cells were cultured at 37° C. under 5% CO2. After 3 days, cytokines in the culture supernatant were determined by ELISA. Specifically, as a Th1 type cytokine, interferon-γ, (IFN-γ) was determined using Mouse IFN-γ ELISA Kit (Amersham). As Th2 type cytokines, interleukin-4 (IL-4) and interleukin-5 (IL-5) were determined with Mouse IL-4 ELISA Kit (Amersham) and Mouse IL-5 ELISA minikit (Endogen), respectively.

Data set [2] relates to interferon-γ (IFN-γ). As to the kind of experiment: IFN-γ production from OVA-sensitized mouse spleen cells induced by antigen stimulation (ELISA). It counts as cell-based. Particulars: OVA-stimulated sensitized spleen cells, 3 days culture supernatant. As for the experimental part:
as §1, §2, §3, §4

Data set [3] concerns interleukin-5 (IL-5). As to the kind of experiment: IL-5 production from OVA-sensitized mouse spleen cells induced by antigen stimulation (ELISA). It counts as cell-based. Particulars: OVA-stimulated sensitized spleen cells, 3 days culture supernatant. How it is done: as §1, §2, §3, §4
The test system of data set [4] is BALB/c mice. The data set is described as follows: Inhibitory effect on eosinophilic infiltration into the abdominal cavity of OVA-immunized mice. It counts as in vivo. Particulars: for Ratio of Infiltrating Eosinophiles: cells collected two days after; for Inhibition: eosinophile ratio vs control. As for the experimental part: Eight week-old male BALB/c mice were immunized with 1.6 mg of aluminium hydroxide gel (200 μl) adsorbing 100 μg of OVA by subcutaneous administration in the back. After 7 days, the mice received a booster injection of the same composition. Seven days after the booster administration, 10 μg of OVA in 200 μl of physiological saline was administered to the mice intraperitoneally. Two days after the intraperitoneal administration, abdominal cavity-infiltrating cells were collected with physiological saline. The total cell count and the eosinophile count in the collected cells were calculated by staining with Türk's solution and Hinkerman's solution, respectively. The test compound was administered orally 2 hours before the OVA intraperitoneal administration.

For data set [5], the system named is BALB/c mice. As to the kind of experiment: Mouse FITC-induced contact dermatitis model (auricule swelling), ointment. The data set is classed as in vivo. Particulars: 10 μl on left auricule 2 hr before induction, 24 hr after induction. How it is done: As a control, Imiquimode (R-837; 4-amino-1-isobutyl-1H-imidazo[4,5-c]quinoline) disclosed in EP 145,340 A was used for comparison. Further, a steroid-type drug Rinderon™ ointment (Shionogi & Co.; 0.12% betamethasone valerate ointment) was used for reference.
The test compound was dissolved in an ointment base (PEG400:PEG4000=7:3) heated to about 80° C. to give a concentration of 1 mg/ml or 10 mg/ml, and then cooled to solid at room temperature to thereby prepare 0.1 or 1% macrogol ointment. Imiquimode (R-837), the control, was also formulated into 0.1 and 1% macrogol ointments.
Seven week-old male BALB/c mice were sensitized by applying 0.2 ml of 0.5% FITC in acetone/dibutyl phthalate (1:1) to the abdomen sheared in advance. Seven days after the sensitization, inflammation was induced by applying 10 μl of 0.5% FITC in acetone/dibutyl phthalate (1:1) to each side of the left auricule (total 20 μl). Before the induction and 24 hr after the induction, the thickness of the auricule was measured with a micrometer. The difference between the two values was taken as the swelling degree. The macrogoal ointment containing the test compound and Rinderon™ ointment (0.12% betamethasonevalerate) were applied to each side of the left auricule in an amount of 5 μl (total 10 μl) 2 hr before the induction. Mice in the placebo group were treated with the macrogol ointment base (PEG400:PEG4000=7:3).
The inflammation inhibitory effect of the ointment of the invention was calculated as an inhibition ratio relative to the swelling degree in the placebo group which was taken as 100%. For example, the inhibition ratios in the groups treated with ointments containing 0.1% and 1% of the compound of Example 59, i.e. 2-butyl-9-(p-fluorobenzyl)-8-hydroxyadenine were 67% and 33%, respectively.

The mark [6] stands for this setting: 30 mg/kg orally 2 hours before OVA i.p.
Where [7] appears, read: 3 mg/kg orally 2 hours before OVA i.p.

Usually Inhibition stands for the percentage by which the read-out fell short of the control. Broadly, the melting point is the temperature, or range, at which the solid turns liquid.

Turning to `Cc1nc(N)c2nc(S)n(Cc3ccccc3)c2n1` [Example 19, 9-Benzyl-8-Mercapto-2-Methyladenine], the IL-4 was 296 pg/mL in data set [1] (test compound 0.1 μM), 29 pg/mL in data set [1] (test compound 1 μM) and less than 7.8 pg/mL in data set [1] (test compound 10 μM). The IFN-γ amounted to 16 ng/mL in data set [2] (test compound 0.1 μM), 50 ng/mL in data set [2] (test compound 1 μM) and 139 ng/mL in data set [2] (test compound 10 μM). Besides, the IL-5 in data set [3] (test compound 0.1 μM) is 4,482 pg/ml; in data set [3] (test compound 1 μM), 1,782 pg/ml; in data set [3] (test compound 10 μM) it was 643 pg/mL.

In the case of `Cc1nc(N)c2nc(O)n(Cc3ccccc3)c2n1` [Example 17, 9-Benzyl-8-Hydroxy-2-Methyladenine], in data set [4] (setting [6]), the “Ratio of Infiltrating Eosinophiles” value turned out to be 4.70% and the Inhibition is 62.9%.

On to `Nc1nc(C2CCCCC2)nc2c1nc(O)n2Cc1ccccc1` [Example 21, 9-Benzyl-2-Cyclohexyl-8-Hydroxyadenine], for which the IL-4 in data set [1] (test compound 0.1 μM) is 192 pg/mL; in data set [1] (test compound 1 μM), 11 pg/mL; in data set [1] (test compound 10 μM), less than 7.8 pg/mL. The IFN-γ in data set [2] (test compound 0.1 μM) was 28 ng/mL; in data set [2] (test compound 1 μM) it was 158 ng/mL; in data set [2] (test compound 10 μM), 170 ng/mL. Also, the IL-5 is 4,103 pg/ml in data set [3] (test compound 0.1 μM), 1,291 pg/ml in data set [3] (test compound 1 μM) and 715 pg/mL in data set [3] (test compound 10 μM).

With `Cc1nc(N)c2nc(O)n(Cc3cccc(Cl)c3)c2n1` [Example 18, 9-(m-Chlorobenzyl)-8-Hydroxy-2-Methyladenine], the results for the IL-4 in data set [1] (test compound 0.1 μM), in data set [1] (test compound 1 μM) and in data set [1] (test compound 10 μM) were 254 pg/mL, less than 7.8 pg/mL and less than 7.8 pg/mL, respectively. The IFN-γ was 26 ng/mL in data set [2] (test compound 0.1 μM), 63 ng/mL in data set [2] (test compound 1 μM) and 181 ng/mL in data set [2] (test compound 10 μM). The IL-5 in data set [3] (test compound 0.1 μM) was 4,150 pg/ml; in data set [3] (test compound 1 μM), 2,321 pg/ml; in data set [3] (test compound 10 μM) it was 710 pg/mL.

`CCCCCc1nc(N)c2nc(O)n(Cc3ccccc3)c2n1` [Example 20, 9-Benzyl-8-Hydroxy-2-Pentyladenine]: the IL-4 was 208 pg/mL in data set [1] (test compound 0.01 μM), 20 pg/mL in data set [1] (test compound 0.1 μM), less than 7.8 pg/mL in data set [1] (test compound 1 μM) and less than 7.8 pg/mL in data set [1] (test compound 10 μM). Also, the “Ratio of Infiltrating Eosinophiles” value in data set [4] (setting [6]) is given as 6.94%. In data set [4] (setting [6]), the Inhibition is recorded as 46.2%. Besides, the IFN-γ in data set [2] (test compound 0.01 μM) was 25 ng/mL; in data set [2] (test compound 0.1 μM), 135 ng/mL; in data set [2] (test compound 1 μM) it was 193 ng/mL; in data set [2] (test compound 10 μM) it was 219 ng/mL. Further, the IL-5 in data set [3] (test compound 0.01 μM) was 3,792 pg/ml; in data set [3] (test compound 0.1 μM), 1,667 pg/ml; in data set [3] (test compound 1 μM), 670 pg/mL; in data set [3] (test compound 10 μM), 524 pg/mL.

Take `Nc1ncnc2c1nc(O)n2Cc1ccc(F)cc1` [Example 4, 9-(4-Fluorobenzyl)-8-Hydroxyadenine]: the melting point lay within 270 to 272 °C.

On to `CCCCc1nc(N)c2nc(O)n(Cc3ccc(F)cc3)c2n1` [Example 59, 2-Butyl-9-(p-Fluorobenzyl)-8-Hydroxyadenine], for which the “inhibition ratio relative to the swelling degree in the placebo group” value in data set [5] (0.1% macrogol ointment) came to 67%; in data set [5] (1% macrogol ointment), 33%.

In turn, `CC(C)(C)OC(=O)Oc1nc2c(N)ncnc2n1Cc1ccccc1` [Example 10, 9-Benzyl-8-tert-Butyloxycarbonyloxyadenine] showed a melting point of 287 to 289 °C.

Consider `CCCCCCCC(=O)Oc1nc2c(N)ncnc2n1Cc1ccccc1` [Example 15, 9-Benzyl-8-Octanoyloxyadenine], for which the melting point was 248 to 250 °C.

Take `C[C@@H]1C[C@H]2[C@@H]3CCC4=CC(=O)C=C[C@]4(C)[C@@]3(F)[C@@H](O)C[C@]2(C)[C@@]1(O)C(=O)CO` [Dexamethasone, reference compound]: in data set [4] (setting [7]), the “Ratio of Infiltrating Eosinophiles” value was determined as 10.27% and the Inhibition was 18.9%.

`CC(=O)Oc1nc2c(N)ncnc2n1Cc1ccccc1` [Example 11, 9-Benzyl-8-Acetoxyadenine] returned a melting point of 189 to 191 °C.

Regarding `Nc1ncnc2c1nc(OC(=O)c1ccccc1)n2Cc1ccccc1` [Example 12, 9-Benzyl-8-Benzoyloxyadenine], the melting point is 227 to 229 °C.

`CCCCn1c(O)nc2c(N)ncnc21` [Example 3, 9-Butyl-8-Hydroxyadenine] yielded a melting point of 222 to 224 °C.

Turning to `CC(C)c1nc(N)c2nc(O)n(Cc3ccccc3)c2n1` [Example 45, 9-Benzyl-8-Hydroxy-2-Isopropyladenine], the IL-4 in data set [1] (test compound 0.1 μM) is 86 pg/mL; in data set [1] (test compound 1 μM), less than 7.8 pg/mL; in data set [1] (test compound 10 μM), less than 7.8 pg/mL. The IFN-γ was 46 ng/mL in data set [2] (test compound 0.1 μM), 161 ng/mL in data set [2] (test compound 1 μM) and 187 ng/mL in data set [2] (test compound 10 μM). Further, the values for the IL-5 in data set [3] (test compound 0.1 μM), in data set [3] (test compound 1 μM) and in data set [3] (test compound 10 μM) were 2,881 pg/ml, 699 pg/mL and 563 pg/mL, respectively.

Consider `CC(C)Cn1cnc2c(N)nc3ccccc3c21` [Example R-837, 4-amino-1-isobutyl-1H-imidazo[4,5-c]quinoline, reference compound], for which the “inhibition ratio relative to the swelling degree in the placebo group” value was 50% in data set [5] (0.1% macrogol ointment) and 67% in data set [5] (1% macrogol ointment).

With `Nc1nc(Cc2ccccc2)nc2c1nc(O)n2Cc1ccccc1` [Example 24, 2,9-Dibenzyl-8-Hydroxyadenine], the IL-4 was 195 pg/mL in data set [1] (test compound 0.1 μM), less than 7.8 pg/mL in data set [1] (test compound 1 μM) and less than 7.8 pg/mL in data set [1] (test compound 10 μM). The IFN-γ came out at 44 ng/mL in data set [2] (test compound 0.1 μM), 199 ng/mL in data set [2] (test compound 1 μM) and 244 ng/mL in data set [2] (test compound 10 μM). The IL-5 in data set [3] (test compound 0.1 μM) was 3,670 pg/ml; in data set [3] (test compound 1 μM), 1,130 pg/ml; in data set [3] (test compound 10 μM), 345 pg/mL.

Compound `Nc1ncnc2c1nc(O)n2Cc1ccccc1` [Example 1, 9-Benzyl-8-Hydroxyadenine] yielded a melting point of 278 to 280 °C.

The record behind these values is US6376501B1, “Type 2 helper T cell-selective immune response suppressors” (Japan Energy Corporation, priority 2000, dated 2002).
